# Literature values in PMC11571109, “Covalent Inhibitors of S100A4 Block the Formation of a Pro-Metastasis Non-Muscle Myosin 2A Complex” (Journal of Medicinal Chemistry, 2024).
# Tested on: S100A4
# Parameters: method as in PMID 20421509
# Conditions: by inducing oligomerization; read-out: IC50 S100A4 inhibition; cited from earlier work
compound,measurement,value
c1ccc2c(c1)Nc1ccccc1S2 [phenothiazine],IC50,~100 µM
